Experimental data published in patent US9682995B2, “Amino-substituted isothiazoles” (BAYER PHARMA AKTIENGESELLSCHAFT, priority 2013, dated 2017).

Legend:
Experiment in all cases: Kinase Profiling (KINOMEscan)
Assay type in all cases: binding
[1] = target: 456 kinases (of these 395 non-mutant kinases) (Homo sapiens, UniProt O60285); settings: ARK5; 10 μM
[2] = target: 456 kinases (of these 395 non-mutant kinases) (Homo sapiens, UniProt P35916); settings: FLT4; 10 μM
[3] = target: 456 kinases (of these 395 non-mutant kinases) (Homo sapiens, UniProt Q9Y6M4); settings: CSNK1G3; 10 μM
[4] = target: 456 kinases (of these 395 non-mutant kinases) (Homo sapiens, UniProt Q59H18); settings: TNNI3K; 10 μM
[5] = target: 456 kinases (of these 395 non-mutant kinases) (Homo sapiens, UniProt P35590); settings: TIE1; 10 μM
456 kinases (of these 395 non-mutant kinases) (Homo sapiens, UniProt P35590), sequence (P35590 22-1138 limits assumed, change not shown): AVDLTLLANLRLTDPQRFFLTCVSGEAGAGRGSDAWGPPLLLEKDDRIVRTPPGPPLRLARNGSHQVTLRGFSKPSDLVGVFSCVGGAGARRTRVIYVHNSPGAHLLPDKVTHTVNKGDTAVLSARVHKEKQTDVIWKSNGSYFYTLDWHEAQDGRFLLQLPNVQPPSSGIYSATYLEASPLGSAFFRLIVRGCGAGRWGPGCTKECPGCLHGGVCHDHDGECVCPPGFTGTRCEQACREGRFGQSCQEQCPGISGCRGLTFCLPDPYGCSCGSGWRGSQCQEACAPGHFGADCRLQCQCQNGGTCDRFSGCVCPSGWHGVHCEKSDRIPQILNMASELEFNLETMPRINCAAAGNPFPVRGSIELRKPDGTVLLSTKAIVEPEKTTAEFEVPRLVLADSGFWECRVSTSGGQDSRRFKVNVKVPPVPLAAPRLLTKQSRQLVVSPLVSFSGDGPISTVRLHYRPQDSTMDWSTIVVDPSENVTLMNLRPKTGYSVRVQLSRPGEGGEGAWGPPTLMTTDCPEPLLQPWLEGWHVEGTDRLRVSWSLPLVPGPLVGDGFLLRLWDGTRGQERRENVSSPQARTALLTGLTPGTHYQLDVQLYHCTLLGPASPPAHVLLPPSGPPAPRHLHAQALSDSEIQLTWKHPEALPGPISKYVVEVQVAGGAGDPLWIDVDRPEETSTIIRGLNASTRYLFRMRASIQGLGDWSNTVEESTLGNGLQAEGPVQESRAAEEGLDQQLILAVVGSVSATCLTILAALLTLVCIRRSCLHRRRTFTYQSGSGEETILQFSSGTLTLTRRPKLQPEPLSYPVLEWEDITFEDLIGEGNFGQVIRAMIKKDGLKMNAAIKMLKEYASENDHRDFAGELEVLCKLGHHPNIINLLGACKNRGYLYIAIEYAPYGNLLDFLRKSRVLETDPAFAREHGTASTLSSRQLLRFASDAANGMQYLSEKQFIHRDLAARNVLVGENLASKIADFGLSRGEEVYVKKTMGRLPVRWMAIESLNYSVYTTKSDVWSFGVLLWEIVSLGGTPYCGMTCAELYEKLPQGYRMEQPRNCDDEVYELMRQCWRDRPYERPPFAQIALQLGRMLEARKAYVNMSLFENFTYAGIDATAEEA

[6] = target: 456 kinases (of these 395 non-mutant kinases) (Homo sapiens, UniProt Q9H2K8); settings: TAOK3; 10 μM
[7] = target: 456 kinases (of these 395 non-mutant kinases) (Homo sapiens, UniProt Q13705); settings: ACVR2B; 10 μM
456 kinases (of these 395 non-mutant kinases) (Homo sapiens, UniProt Q13705), sequence (Q13705 19-512 limits assumed, change not shown): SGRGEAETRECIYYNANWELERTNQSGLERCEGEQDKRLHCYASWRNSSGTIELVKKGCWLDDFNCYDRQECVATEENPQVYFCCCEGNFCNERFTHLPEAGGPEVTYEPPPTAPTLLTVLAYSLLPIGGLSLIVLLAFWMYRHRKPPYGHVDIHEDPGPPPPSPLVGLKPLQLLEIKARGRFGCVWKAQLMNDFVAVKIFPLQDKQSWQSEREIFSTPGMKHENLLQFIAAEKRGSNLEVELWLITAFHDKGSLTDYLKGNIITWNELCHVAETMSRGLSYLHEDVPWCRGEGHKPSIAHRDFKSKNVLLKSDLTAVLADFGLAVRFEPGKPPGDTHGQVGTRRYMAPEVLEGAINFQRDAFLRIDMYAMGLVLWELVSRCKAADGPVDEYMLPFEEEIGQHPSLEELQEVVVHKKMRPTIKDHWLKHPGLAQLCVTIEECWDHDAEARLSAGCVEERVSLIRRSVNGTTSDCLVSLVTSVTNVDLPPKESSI

[8] = target: 456 kinases (of these 395 non-mutant kinases) (Homo sapiens, UniProt Q02750); settings: MEK1; 10 μM
[9] = target: 456 kinases (of these 395 non-mutant kinases) (Homo sapiens, UniProt Q04771); settings: ACVR1; 10 μM
456 kinases (of these 395 non-mutant kinases) (Homo sapiens, UniProt Q04771), sequence (Q04771 21-509 limits assumed, change not shown): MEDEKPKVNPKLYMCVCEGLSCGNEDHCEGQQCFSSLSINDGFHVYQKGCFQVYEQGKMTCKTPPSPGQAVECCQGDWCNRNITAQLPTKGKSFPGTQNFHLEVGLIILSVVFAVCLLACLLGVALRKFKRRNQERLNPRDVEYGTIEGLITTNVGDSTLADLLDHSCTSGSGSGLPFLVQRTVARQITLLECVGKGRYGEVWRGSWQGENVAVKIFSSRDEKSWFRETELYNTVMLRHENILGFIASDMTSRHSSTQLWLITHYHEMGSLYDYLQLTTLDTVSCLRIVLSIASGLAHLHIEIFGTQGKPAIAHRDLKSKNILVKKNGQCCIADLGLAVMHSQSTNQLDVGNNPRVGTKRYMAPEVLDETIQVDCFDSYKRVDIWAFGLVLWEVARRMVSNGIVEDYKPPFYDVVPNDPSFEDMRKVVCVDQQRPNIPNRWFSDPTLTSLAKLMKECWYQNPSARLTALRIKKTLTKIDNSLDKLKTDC

[10] = target: 456 kinases (of these 395 non-mutant kinases) (Homo sapiens, UniProt P50750); settings: CDK9; 10 μM
[11] = target: 456 kinases (of these 395 non-mutant kinases) (Homo sapiens, UniProt Q8WTQ7); settings: GRK7; 10 μM
[12] = target: 456 kinases (of these 395 non-mutant kinases) (Homo sapiens, UniProt Q99755); settings: PIP5K1A; 10 μM
[13] = target: 456 kinases (of these 395 non-mutant kinases) (Homo sapiens, UniProt Q8NI60); settings: ADCK3; 10 μM
456 kinases (of these 395 non-mutant kinases) (Homo sapiens, UniProt Q8NI60), sequence (Q8NI60 163-647 limits assumed, change not shown): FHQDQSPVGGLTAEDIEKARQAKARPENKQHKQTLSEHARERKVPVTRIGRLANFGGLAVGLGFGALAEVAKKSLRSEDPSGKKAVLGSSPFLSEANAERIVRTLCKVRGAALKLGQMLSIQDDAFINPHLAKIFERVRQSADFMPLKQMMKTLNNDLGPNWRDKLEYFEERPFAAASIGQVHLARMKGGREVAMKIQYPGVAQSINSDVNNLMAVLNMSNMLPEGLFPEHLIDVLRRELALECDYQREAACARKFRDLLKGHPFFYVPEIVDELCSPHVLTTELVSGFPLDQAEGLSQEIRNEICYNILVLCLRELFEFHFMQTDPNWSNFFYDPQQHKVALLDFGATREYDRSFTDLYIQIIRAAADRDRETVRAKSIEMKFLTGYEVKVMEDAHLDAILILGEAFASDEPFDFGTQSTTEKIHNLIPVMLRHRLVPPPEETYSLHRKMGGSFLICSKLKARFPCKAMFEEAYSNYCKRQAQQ

[14] = target: 456 kinases (of these 395 non-mutant kinases) (Homo sapiens, UniProt Q99683); settings: ASK1; 10 μM
[15] = target: 456 kinases (of these 395 non-mutant kinases) (Homo sapiens, UniProt Q13131); settings: AMPK-alpha1; 10 μM
[16] = target: 456 kinases (of these 395 non-mutant kinases) (Homo sapiens, UniProt P19784); settings: CSNK2A2; 10 μM
[17] = target: 456 kinases (of these 395 non-mutant kinases) (Homo sapiens, UniProt P0C1S8); settings: WEE2; 10 μM
[18] = target: 456 kinases (of these 395 non-mutant kinases) (Homo sapiens, UniProt P00533, L861Q); settings: EGFR(L861Q); 10 μM
[19] = target: 456 kinases (of these 395 non-mutant kinases) (Homo sapiens, UniProt O43293); settings: DAPK3; 10 μM
[20] = target: 456 kinases (of these 395 non-mutant kinases) (Homo sapiens, UniProt P36896); settings: ACVR1B; 10 μM
456 kinases (of these 395 non-mutant kinases) (Homo sapiens, UniProt P36896), sequence (P36896 24-505 limits assumed, change not shown): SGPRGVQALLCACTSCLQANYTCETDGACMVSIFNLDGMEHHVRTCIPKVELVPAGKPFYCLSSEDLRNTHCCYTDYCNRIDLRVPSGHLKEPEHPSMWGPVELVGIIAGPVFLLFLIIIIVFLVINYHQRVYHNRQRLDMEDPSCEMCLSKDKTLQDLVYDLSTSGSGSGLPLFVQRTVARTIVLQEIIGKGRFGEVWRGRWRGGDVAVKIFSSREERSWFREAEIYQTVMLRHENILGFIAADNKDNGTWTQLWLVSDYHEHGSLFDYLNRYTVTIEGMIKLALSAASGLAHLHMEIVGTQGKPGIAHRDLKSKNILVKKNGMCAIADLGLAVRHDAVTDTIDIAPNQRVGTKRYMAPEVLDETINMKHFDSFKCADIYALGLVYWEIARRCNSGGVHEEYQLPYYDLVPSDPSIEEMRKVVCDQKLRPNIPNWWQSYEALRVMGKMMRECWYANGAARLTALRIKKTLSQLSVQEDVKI

[21] = target: 456 kinases (of these 395 non-mutant kinases) (Homo sapiens, UniProt Q04912); settings: MST1R; 10 μM
[22] = target: 456 kinases (of these 395 non-mutant kinases) (Homo sapiens, UniProt Q16659); settings: ERK3; 10 μM
[23] = target: 456 kinases (of these 395 non-mutant kinases) (Homo sapiens, UniProt Q9Y2K2); settings: QSK; 10 μM
[24] = target: 456 kinases (of these 395 non-mutant kinases) (Homo sapiens, UniProt P42345); settings: MTOR; 10 μM
[25] = target: 456 kinases (of these 395 non-mutant kinases) (Homo sapiens, UniProt Q15759); settings: p38-beta; 10 μM
[26] = target: 456 kinases (of these 395 non-mutant kinases) (Homo sapiens, UniProt P36888, D835H); settings: FLT3(D835H); 10 μM
[27] = target: 456 kinases (of these 395 non-mutant kinases) (Homo sapiens, UniProt P23443); settings: S6K1; 10 μM
[28] = target: 456 kinases (of these 395 non-mutant kinases) (Homo sapiens, UniProt O14757); settings: CHEK1; 10 μM
[29] = target: 456 kinases (of these 395 non-mutant kinases) (Homo sapiens, UniProt O43683); settings: BUB1; 10 μM
[30] = target: 456 kinases (of these 395 non-mutant kinases) (Homo sapiens, UniProt Q9HC98); settings: NEK6; 10 μM
[31] = target: 456 kinases (of these 395 non-mutant kinases) (Homo sapiens, UniProt Q9Y243); settings: AKT3; 10 μM
456 kinases (of these 395 non-mutant kinases) (Homo sapiens, UniProt Q9Y243), sequence (Q9Y243 2-479 limits assumed, stated change not applied): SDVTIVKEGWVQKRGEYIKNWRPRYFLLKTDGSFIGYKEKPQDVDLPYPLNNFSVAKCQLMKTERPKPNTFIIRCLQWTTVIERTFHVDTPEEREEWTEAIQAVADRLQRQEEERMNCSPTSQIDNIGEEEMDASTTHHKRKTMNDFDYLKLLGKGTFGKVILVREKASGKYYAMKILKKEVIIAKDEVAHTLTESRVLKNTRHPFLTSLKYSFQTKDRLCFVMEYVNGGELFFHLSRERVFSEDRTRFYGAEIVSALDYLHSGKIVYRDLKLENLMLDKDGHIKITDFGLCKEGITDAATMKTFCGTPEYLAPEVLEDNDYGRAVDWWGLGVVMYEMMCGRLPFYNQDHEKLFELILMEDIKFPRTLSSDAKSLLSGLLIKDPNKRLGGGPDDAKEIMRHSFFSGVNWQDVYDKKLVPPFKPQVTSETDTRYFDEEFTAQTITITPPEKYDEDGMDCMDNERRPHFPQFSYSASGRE

[32] = target: 456 kinases (of these 395 non-mutant kinases) (Homo sapiens, UniProt P42336, H1047L); settings: PIK3CA(H1047L); 10 μM

456 kinases (of these 395 non-mutant kinases) (Homo sapiens, UniProt P35916), sequence (P35916 25-1363 limits assumed, change not shown): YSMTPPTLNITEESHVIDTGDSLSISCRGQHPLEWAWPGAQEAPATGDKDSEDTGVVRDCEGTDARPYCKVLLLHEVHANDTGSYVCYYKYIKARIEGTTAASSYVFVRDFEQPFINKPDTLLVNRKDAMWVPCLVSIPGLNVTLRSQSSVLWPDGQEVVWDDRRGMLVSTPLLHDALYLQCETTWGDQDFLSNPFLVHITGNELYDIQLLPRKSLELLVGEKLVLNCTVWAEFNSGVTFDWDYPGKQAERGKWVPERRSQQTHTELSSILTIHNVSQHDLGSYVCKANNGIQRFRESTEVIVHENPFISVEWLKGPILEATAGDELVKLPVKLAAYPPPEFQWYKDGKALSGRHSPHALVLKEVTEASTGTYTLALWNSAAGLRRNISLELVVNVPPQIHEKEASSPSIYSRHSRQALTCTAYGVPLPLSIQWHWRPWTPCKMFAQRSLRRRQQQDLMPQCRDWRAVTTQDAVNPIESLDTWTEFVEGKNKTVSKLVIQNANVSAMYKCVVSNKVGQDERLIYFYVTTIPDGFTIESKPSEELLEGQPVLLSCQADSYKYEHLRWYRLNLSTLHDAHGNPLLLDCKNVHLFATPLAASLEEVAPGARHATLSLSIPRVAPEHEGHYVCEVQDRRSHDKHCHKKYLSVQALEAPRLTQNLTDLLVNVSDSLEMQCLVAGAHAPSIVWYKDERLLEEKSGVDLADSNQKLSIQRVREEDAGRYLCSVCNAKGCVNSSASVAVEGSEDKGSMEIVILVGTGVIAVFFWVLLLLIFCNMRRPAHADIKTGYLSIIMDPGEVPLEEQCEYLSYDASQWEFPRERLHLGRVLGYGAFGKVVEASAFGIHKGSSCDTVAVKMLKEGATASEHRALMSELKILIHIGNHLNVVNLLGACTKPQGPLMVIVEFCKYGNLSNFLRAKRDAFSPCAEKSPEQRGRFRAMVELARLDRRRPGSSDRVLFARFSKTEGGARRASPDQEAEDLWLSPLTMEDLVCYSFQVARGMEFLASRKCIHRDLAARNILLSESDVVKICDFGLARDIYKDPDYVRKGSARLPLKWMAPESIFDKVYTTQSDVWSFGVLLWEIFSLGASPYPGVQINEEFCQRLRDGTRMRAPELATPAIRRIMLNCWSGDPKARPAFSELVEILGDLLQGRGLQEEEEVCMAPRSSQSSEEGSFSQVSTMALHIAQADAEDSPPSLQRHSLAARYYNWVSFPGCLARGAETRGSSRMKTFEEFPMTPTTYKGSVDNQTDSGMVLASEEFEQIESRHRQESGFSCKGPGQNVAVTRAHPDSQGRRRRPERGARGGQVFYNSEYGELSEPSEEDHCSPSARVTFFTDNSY

## CCc1ccccc1NC(=O)c1c(C)nsc1Nc1cnc2cc(F)ccc2n1 [Example 20, N-(2-Ethylphenyl)-5-[(6-fluoroquinoxalin-2-yl)amino]-3-methyl-1,2-thiazole-4-carboxamide]
[1]
  % Ctrl @ 10 μM: 85 % Ctrl
[2]
  % Ctrl @ 10 μM: 87 % Ctrl
[3]
  % Ctrl @ 10 μM: 70 % Ctrl
[4]
  % Ctrl @ 10 μM: 85 % Ctrl
[5]
  % Ctrl @ 10 μM: 100 % Ctrl
[6]
  % Ctrl @ 10 μM: 100 % Ctrl
[7]
  % Ctrl @ 10 μM: 91 % Ctrl
[8]
  % Ctrl @ 10 μM: 97 % Ctrl
[9]
  % Ctrl @ 10 μM: 77 % Ctrl
[10]
  % Ctrl @ 10 μM: 100 % Ctrl
[11]
  % Ctrl @ 10 μM: 94 % Ctrl
[12]
  % Ctrl @ 10 μM: 100 % Ctrl
[13]
  % Ctrl @ 10 μM: 64 % Ctrl
[14]
  % Ctrl @ 10 μM: 90 % Ctrl
[15]
  % Ctrl @ 10 μM: 92 % Ctrl
[16]
  % Ctrl @ 10 μM: 100 % Ctrl
[17]
  % Ctrl @ 10 μM: 100 % Ctrl
[18]
  % Ctrl @ 10 μM: 100 % Ctrl
[19]
  % Ctrl @ 10 μM: 72 % Ctrl
[20]
  % Ctrl @ 10 μM: 100 % Ctrl
[21]
  % Ctrl @ 10 μM: 100 % Ctrl
[22]
  % Ctrl @ 10 μM: 68 % Ctrl
[23]
  % Ctrl @ 10 μM: 91 % Ctrl
[24]
  % Ctrl @ 10 μM: 100 % Ctrl
[25]
  % Ctrl @ 10 μM: 100 % Ctrl
[26]
  % Ctrl @ 10 μM: 83 % Ctrl
[27]
  % Ctrl @ 10 μM: 100 % Ctrl
[28]
  % Ctrl @ 10 μM: 73 % Ctrl
[29]
  % Ctrl @ 10 μM: 100 % Ctrl
[30]
  % Ctrl @ 10 μM: 100 % Ctrl
[31]
  % Ctrl @ 10 μM: 100 % Ctrl
[32]
  % Ctrl @ 10 μM: 56 % Ctrl
